# In ChEMBL document CHEMBL1201862, “PubChem BioAssay data set” (2004):
#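 Compound exposure: 48 hours, 5 concentrations, 96-well plates. Here, GI50 denotes the concentration required for 50% inhibition of growth.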 The source made the active and inactive calls. No stated cut-off is given here; in the data, active = GI50 up to about 1.1 µM and inactive = higher.
# Key:
# Experiment in all cases: NCI-60 cell line screen, 48 h
# DLD-1 = system: DLD-1
# HCT-116 = system: HCT-116
# NCI-H460 = system: NCI-H460
# UACC-62 = system: UACC-62
# KM-20L2 = system: KM-20L2
# NCI-H23 = system: NCI-H23
# CAKI-1 = system: CAKI-1
# 786-0 = system: 786-0
# A549 = system: A549
# A498 = system: A498
# OVCAR-5 = system: OVCAR-5
# SF-295 = system: SF-295
# HT-29 = system: HT-29
# RPMI-8226 = system: RPMI-8226
# IGROV-1 = system: IGROV-1
# SK-OV-3 = system: SK-OV-3
# SNB-78 = system: SNB-78
# SK-MEL-2 = system: SK-MEL-2
# LXFL 529 = system: LXFL 529
# SNB-75 = system: SNB-75
# SK-MEL-5 = system: SK-MEL-5
# SN12C = system: SN12C
# XF498 = system: XF498
# LOX IMVI = system: LOX IMVI
# KM12 = system: KM12
# COLO 205 = system: COLO 205
# U-251 = system: U-251
# HCC 2998 = system: HCC 2998
# DMS-273 = system: DMS-273
# SF-539 = system: SF-539
# MOLT-4 = system: MOLT-4
# OVCAR-3 = system: OVCAR-3
# SNB-19 = system: SNB-19
# HCT-15 = system: HCT-15
# Malme-3M = system: Malme-3M
# K562 = system: K562
# HOP-18 = system: HOP-18
# M19-MEL = system: M19-MEL
# SF-268 = system: SF-268
# M14 = system: M14
# RXF 393 = system: RXF 393
# DMS-114 = system: DMS-114
# HOP-62 = system: HOP-62
# OVCAR-4 = system: OVCAR-4
# OVCAR-8 = system: OVCAR-8
# UACC-257 = system: UACC-257
# EKVX = system: EKVX
# ACHN = system: ACHN
# HL-60 = system: HL-60
# CCRF-CEM = system: CCRF-CEM
# UO-31 = system: UO-31
# SW-620 = system: SW-620
# TK-10 = system: TK-10
# SR = system: SR
# SK-MEL-28 = system: SK-MEL-28
# HOP-92 = system: HOP-92
# NCI-H522 = system: NCI-H522
# NCI-H226 = system: NCI-H226
structure (smiles),measurement,setting,value
CCCC1C(=O)CCc2c(OC)ccc(OC)c21 (centres undefined),GI50,DLD-1,> 100 µM (inactive)
same,GI50,HCT-116,51.9 µM (inactive)
same,GI50,NCI-H460,> 100 µM (inactive)
same,GI50,UACC-62,> 100 µM (inactive)
same,GI50,KM-20L2,> 100 µM (inactive)
same,GI50,NCI-H23,> 100 µM (inactive)
same,GI50,CAKI-1,> 100 µM (inactive)
same,GI50,786-0,> 100 µM (inactive)
same,GI50,A549,> 100 µM (inactive)
same,GI50,A498,> 100 µM (inactive)
same,GI50,OVCAR-5,> 100 µM (inactive)
same,GI50,SF-295,> 100 µM (inactive)
same,GI50,HT-29,> 100 µM (inactive)
same,GI50,RPMI-8226,65.9 µM (inactive)
same,GI50,IGROV-1,> 100 µM (inactive)
same,GI50,SK-OV-3,> 100 µM (inactive)
same,GI50,SNB-78,> 100 µM (inactive)
same,GI50,SK-MEL-2,> 100 µM (inactive)
same,GI50,LXFL 529,> 100 µM (inactive)
same,GI50,SNB-75,57.5 µM (inactive)
same,GI50,SK-MEL-5,> 100 µM (inactive)
same,GI50,SN12C,> 100 µM (inactive)
same,GI50,XF498,> 100 µM (inactive)
same,GI50,LOX IMVI,> 100 µM (inactive)
same,GI50,KM12,> 100 µM (inactive)
same,GI50,COLO 205,> 100 µM (inactive)
same,GI50,U-251,> 100 µM (inactive)
same,GI50,HCC 2998,> 100 µM (inactive)
same,GI50,DMS-273,> 100 µM (inactive)
same,GI50,SF-539,> 100 µM (inactive)
same,GI50,MOLT-4,49.1 µM (inactive)
same,GI50,OVCAR-3,73.6 µM (inactive)
same,GI50,SNB-19,99.8 µM (inactive)
same,GI50,HCT-15,> 100 µM
same,GI50,Malme-3M,> 100 µM (inactive)
same,GI50,K562,59 µM (inactive)
same,GI50,HOP-18,2.61 µM (inactive)
same,GI50,M19-MEL,> 100 µM (inactive)
same,GI50,SF-268,91.8 µM (inactive)
same,GI50,M14,> 100 µM (inactive)
same,GI50,RXF 393,> 100 µM (inactive)
same,GI50,DMS-114,48.2 µM (inactive)
same,GI50,HOP-62,> 100 µM (inactive)
same,GI50,OVCAR-4,> 100 µM (inactive)
same,GI50,OVCAR-8,92.7 µM (inactive)
same,GI50,UACC-257,> 100 µM (inactive)
same,GI50,EKVX,> 100 µM (inactive)
same,GI50,ACHN,> 100 µM (inactive)
same,GI50,HL-60,73.8 µM (inactive)
same,GI50,CCRF-CEM,72.3 µM (inactive)
same,GI50,UO-31,17.1 µM (inactive)
same,GI50,SW-620,> 100 µM (inactive)
same,GI50,TK-10,> 100 µM (inactive)
CC1=C(C(=O)NCc2ccccc2)C(c2ccc(C3C(C(=O)NCc4ccccc4)=C(C)NC(C)=C3C(=O)NCc3ccccc3)cc2)C(C(=O)NCc2ccccc2)=C(C)N1,GI50,DLD-1,3.44 µM (inactive)
same,GI50,HCT-116,3.02 µM (inactive)
same,GI50,NCI-H460,28.6 µM (inactive)
same,GI50,SR,2.3 µM (inactive)
same,GI50,UACC-62,7.91 µM (inactive)
same,GI50,KM-20L2,13.9 µM (inactive)
same,GI50,NCI-H23,14.7 µM (inactive)
same,GI50,CAKI-1,14 µM (inactive)
same,GI50,786-0,15.6 µM (inactive)
same,GI50,A549,24.3 µM (inactive)
same,GI50,A498,17.7 µM (inactive)
same,GI50,SK-MEL-28,11.5 µM (inactive)
same,GI50,OVCAR-5,23.7 µM (inactive)
same,GI50,SF-295,17.9 µM (inactive)
same,GI50,HT-29,5.61 µM (inactive)
same,GI50,RPMI-8226,6.65 µM (inactive)
same,GI50,IGROV-1,18 µM (inactive)
same,GI50,SNB-78,9.46 µM (inactive)
same,GI50,SK-MEL-2,18.4 µM (inactive)
same,GI50,LXFL 529,4.58 µM (inactive)
same,GI50,SNB-75,> 10 µM (inactive)
same,GI50,SK-MEL-5,16.1 µM (inactive)
same,GI50,SN12C,6.5 µM (inactive)
same,GI50,XF498,14.9 µM (inactive)
same,GI50,KM12,11.4 µM (inactive)
same,GI50,COLO 205,7.57 µM (inactive)
same,GI50,U-251,3.96 µM (inactive)
same,GI50,HOP-92,17.8 µM (inactive)
same,GI50,HCC 2998,17.1 µM (inactive)
same,GI50,DMS-273,9.42 µM (inactive)
same,GI50,SF-539,2.13 µM (inactive)
same,GI50,MOLT-4,5.75 µM (inactive)
same,GI50,NCI-H522,3.41 µM (inactive)
same,GI50,NCI-H226,17.5 µM (inactive)
same,GI50,OVCAR-3,10.4 µM (inactive)
same,GI50,SNB-19,15.6 µM (inactive)
same,GI50,HCT-15,16.1 µM
same,GI50,Malme-3M,14.4 µM (inactive)
same,GI50,K562,5.93 µM (inactive)
same,GI50,HOP-18,37.5 µM (inactive)
same,GI50,M19-MEL,8.39 µM (inactive)
same,GI50,SF-268,15.1 µM (inactive)
same,GI50,M14,11.8 µM (inactive)
same,GI50,RXF 393,16.6 µM (inactive)
same,GI50,DMS-114,12.6 µM (inactive)
same,GI50,HOP-62,23.2 µM (inactive)
same,GI50,OVCAR-4,15.2 µM (inactive)
same,GI50,OVCAR-8,7.03 µM (inactive)
same,GI50,UACC-257,15 µM (inactive)
same,GI50,EKVX,14.9 µM (inactive)
same,GI50,ACHN,15.6 µM (inactive)
same,GI50,HL-60,6.27 µM (inactive)
same,GI50,CCRF-CEM,3.39 µM (inactive)
same,GI50,UO-31,21.2 µM (inactive)
same,GI50,SW-620,10.2 µM (inactive)
same,GI50,TK-10,20.7 µM (inactive)
